Molecules are shown by their SMILES.

Consider one compound from patent publication US20110130460A1, “INCREASED CREATINE RETENTION WITH SOLUBLE FIBRES” (priority 2007, published 2011).

Data set [1] can be described thus: Urinary creatine and creatinine excretion after a single 2 g creatine dose. Conditions: whatever the form, excretion slightly less than 1 g/24 h. How it is done:
(§1) The health status questionnaire was filled in again.
An aliquot (10 mL) was stored at −20° C.

Data set [2] is described as follows: Plasma creatine kinetics after a single 2 g creatine dose (one-open compartmental model). Type of data set: in vivo, human. The procedure:
as §1
(§2) Venous blood was collected on heparin as an anticoagulant. The tubes were placed immediately on ice and centrifuged at 3000 g for 6 min at 4° C. Plasma (900 μL) was deproteinized with sulfosalicylic acid 5% (300 μL) and centrifuged again at 3000 g for 6min. NaOH 0.1M (90 μL) was added to supernatant (300 μL) to obtain a pH value of about 7.8. Samples were stored at −20° C.
(§3) An aliquot (10 mL) was stored at −20° C. […] An aliquot was stored at −80° C.
Using a Marquardt algorithm, all kinetics were fitted with the following equation:
C(FD/V*(ka/(ka−kel))*(exp(−kel*(t−tlag))−exp(−ka*(t−tlag)))) (equation 1)
where C is the plasma creatine concentration minus the basal concentration (μM) • if C 0, then data were removed • F is the bioavailability • D is the dose (2 g or 15 300 μmol) • is the volume of distribution • ka is the velocity constant of absorption (first order, h^−1) • kel is the velocity constant of elimination (first order, h^−1) • t is the time (h) • tlag is the lag-time (h)
This equation corresponds to a one-open compartmental model in which ka, kel and tlag are the primary parameters. Knowing their value, new kinetic parameters of plasma creatine were calculated:
AUCO,∞:the area under the curve integrated from zero to infinity
Since the bioavailability (F) may not be measured, only the apparent volume of distribution and the apparent clearance can be estimated:
Vd: the apparent volume of distribution (Vd=V/F, L)
C: the apparent clearance (Cl=Kel·Vd, L.h^−1)

A short description of data set [3]: Plasma and erythrocyte creatine and creatinine after one week creatine supplementation (3×2 g per day). Type of data set: in vivo, human. The procedure:
as §1, §2
After the first centrifugation, erythrocytes were washed twice with a similar volume of physiological water (0.9% NaCl, centrifugation: 1000 g, 5 min, 4° C.). After three frozen and defrozen procedures, erythrocytes (300 μL) were deproteinized with sulfosalicylic acid 5% (600 μL) and then centrifuged at 3000 g during 6 min. Supernatant was collected and centrifuged again. The clear supernatant was neutralized with NaOH 0.1M.
as §3

A short description of data set [4]: Creatine and creatinine in 24 h feces by HPLC. Type of data set: in vivo, human. Conditions: basal or supplemented, could not be quantified. How it is done: as §1, §3
Both creatine and creatinine content in feces was analyzed by HPLC at 205 nm. After dilution of a feces aliquot in 0.045M ammonium sulfate containing an internal standard (4-[2-aminoethyl]-benzene sulfonamide), the sample was filtered on a 10 kDa membrane. The following conditions were used to identify creatine: 2 Beckman RP-C18 Ultrasphere ODS columns 5μ 25 cm*4.6 mm; elution: A/B (70/30) with 0.05% anhydrous trifluoroacetic acid (TFA) at 1.0 mL/min; A: 0.1% H3PO4 in deionised H2O; B: 1.4 mg sodium dodecylsulfate/mL acetonitril. […] The values reported for creatine in the results section correspond to highest possible estimates including a probable overestimation.

The nature of data set [5]: Questionnaire on side effects after creatine supplementation. Type of data set: in vivo, human. Conditions: after each period of one week creatine supplementation vs initial visit.
Excerpt: as §1

The conditions of data set [6]: 21 g/d creatine for 2 weeks; levels within the normal range; cited from earlier work.

In general, half-life refers to the time needed for the level to fall by half in the phase considered. For `CN(CC(=O)O)C(=N)N` [creatine], the “Creatinine urinary excretion, effect of creatine ingestion” value in data set [1] was “not affected”. In addition, in data set [2] (after ingestion of 2 g creatine, not influenced by the form ingested), the “apparent volume of distribution relative to body mass” value is reported as “about 75 % of body mass”. For the same compound, the “change of plasma creatinine concentration after single dose” value in data set [2] (eight hours following ingestion of 2 g creatine, independent of treatment, basal 53.5±1.50 μM) is reported as “changed by only a few μM”. In data set [2] (human, plasma, oral, after ingestion of 2 g creatine, mean over the forms, read-out: mean half-life of elimination (converted)), the half-life was 1.09 ± 0.06 h. Also, the “erythrocyte creatinine concentration during the experiment” value in data set [3] (basal about 25 μM) is reported as “remained stable”. Also, the “plasma creatine concentration after supplementation, fold higher” value in data set [3] (one week, 3×2 g per day, fasted state, post vs pre) is 11±2.5 fold. Further, the “increase of erythrocyte creatine concentration after supplementation” value in data set [3] (one week, 3×2 g per day, independent of the form ingested) is recorded as 88±22%. The “maximal estimated value of creatine in feces” value in data set [4] was not above 50±5.7 μg per gram fresh feces. Further, the “frequency of declared health troubles (side effects)” value in data set [5] was “No difference was observed in the frequency of declared health troubles except for muscle cramps which were less frequently reported”. For the same compound, the “excretion of methylamine and formaldehyde” value in data set [6] was “increased excretion of methylamine and formaldehyde”.
